Numbering of substitutions follows the chain as printed. Several values for one entry are separate records, joined by “and”; a condition that tells them apart may be missing. Equal values may be shown once. Entries after “also recorded” stand apart in the source; their conditions may differ. Read-outs that look alike come from different tables or passages of the source.
What was measured:
DrOTOP1 = molecular target: T1, DrOTOP1 (Danio rerio, UniProt Q7ZWK8); assay: Whole-cell patch-clamp, inhibition of acid-evoked currents, WT DrOTOP1 expressed in HEK-293 cells; type: cell-based, zebrafish (Danio rerio); conditions: for Inhibition of pH 5.5-induced currents, screen 2 / Inhibition of pH 5.5-induced currents, screen 1: 200 µM compound; for Inhibition of pH 5.5-induced currents, screen 2 / inhibition at 200 µM / Inhibition of pH 5.5-induced currents, screen 1: HEK-293 cells expressing DrOTOP1, Vm -80 mV, values of single cells; for inhibition at 200 µM: HEK293, pH 5.5, 200 µM compound; for Inhibition of pH 5.5-induced currents, screen 1: 200 µM
T1 construct: A previously generated codon-optimized full-length DrOTOP1[8]; (UniProt: Q7ZWK8) construct; expressed in transfected cells; host or cells: HEK-293 (CRL-1573, ATCC)
T1 sequence (Q7ZWK8 1-586): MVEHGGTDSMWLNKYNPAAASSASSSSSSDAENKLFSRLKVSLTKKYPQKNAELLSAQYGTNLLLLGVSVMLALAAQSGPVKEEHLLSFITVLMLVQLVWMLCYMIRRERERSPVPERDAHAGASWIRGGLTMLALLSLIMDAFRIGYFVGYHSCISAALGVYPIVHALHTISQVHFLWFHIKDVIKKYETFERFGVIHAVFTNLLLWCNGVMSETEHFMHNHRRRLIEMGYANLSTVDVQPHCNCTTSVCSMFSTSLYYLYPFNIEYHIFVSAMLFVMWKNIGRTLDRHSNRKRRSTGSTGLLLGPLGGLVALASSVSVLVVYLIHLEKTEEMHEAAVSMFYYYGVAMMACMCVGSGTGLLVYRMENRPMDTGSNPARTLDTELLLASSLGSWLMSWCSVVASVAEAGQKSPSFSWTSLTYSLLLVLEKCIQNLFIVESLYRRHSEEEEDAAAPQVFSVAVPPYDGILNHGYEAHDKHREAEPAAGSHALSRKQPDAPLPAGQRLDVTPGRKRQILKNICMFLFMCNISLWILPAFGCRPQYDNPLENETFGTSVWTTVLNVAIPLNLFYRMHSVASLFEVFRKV
From the text: The 50 molecules identified were individually tested by whole-cell patch-clamp electrophysiology for effects on DrOTOP1 expressed in human embryonic kidney (HEK)−293 cells. […] This approach enabled us to observe the on- and off-responses of each compound. To quantify the effect of each compound, we compared the current magnitude during compound application immediately before wash-off, to the peak inward current following its removal (Supplementary Fig. 2A).
(§1) HEK-293 cells (CRL-1573, ATCC) were cultured in DMEM (Thermofisher 11995073) containing 10% fetal bovine serum (Life Technology 16000044) and Penicillin-Streptomycin (100 I.U./mL) and (100 µg/mL), respectively. Cells were transfected with WT DrOTOP1 or mutant DrOTOP1 channels in 35 mm petri dishes, with ~ 500 ng DNA and 2 μL TransIT-LT1 transfection reagent (Mirus Bio Corporation, Cat # MIR2300) following the manufacturer’s protocol. All constructs were subcloned into a pcDNA3.1 vector that adds an N-terminal fusion tag consisting of an octahistidine tag followed by eGFP, a Gly-Thr-Gly-Thr linker and a 3C protease cleavage site ([…]) followed by WT DrOTOP1, WT mOTOP1, WT hOTOP1, or mutated DrOTOP1. Point mutations were generated via In-Fusion Cloning (Takara) using single-stranded DNA primers generated through IDT and sequence confirmed by Sanger sequencing (GeneWiz).
(§2) Whole-cell patch-clamp recording was performed as previously described[6],[22],[25]. Recordings were made with an Axopatch 200B amplifier, digitized with a Digidata 1322a 16-bit data acquisition system, acquired with pClamp 8.2 and analyzed with Clampfit 10 (Molecular Devices). Recordings were sampled at 5 kHz and filtered at 1 kHz. Patch Pipettes with resistance of […] were fabricated from borosilicate glass, and only recordings with a giga-Ohm seal were used in analysis. Membrane potential was held at −80 mV for the duration of recordings. At the beginning of recordings and between, cells were washed with Tyrode’s solution (see below). Once a giga-Ohm seal was reached, cells were lifted and placed in front of microcapillary tubes controlled by a Fast-Step perfusion system (Warner Instruments) so that extracellular solutions could be rapidly exchanged during each experiment.
Standard Tyrode’s solution consisted of 145 mM NaCl, 5 mM KCl, MgCl2, 2 mM CaCl2, 20 mM D-Glucose, and 10 mM HEPES (for pH 7.4). All other extracellular patch-clamp solutions contained 160 mM NMDG-Cl, 2 mM CaCl2, and the following buffers: 10 mM HEPES (for pH 7.4), 10 mM MES (for pH 6.5-5.5), 10 mM CHES for pH 10, and 10 mM HomoPIPES for (pH 5.0). pH adjusted with HCl. […] The pipette contained intracellular solution made up of 120 mM Cs-aspartate, 15 mM CsCl, 2 mM Mg-ATP, 5 mM EGTA, 2.4 mM CaCl2 (100 nM free Ca^2+), and 10 mM HEPES with a pH of 7.3. All extracellular solution osmolarity was adjusted to 300 mOsm and intracellular osmolarity was adjusted to 290 mOsm.
All data are presented as mean ± SEM unless otherwise noted, and each data point represents an independent replicant. Inhibition of compounds was quantified as ((I2peak-I1)/(I2peak))*100, where I1 is the current immediately before wash-off and I2peak is the maximum recovered current (Supplementary Fig. 2). Hill coefficients were determined by the following equation: Y = Bmax*X^h/(Kd^h + X^h).

DrOTOP1 G130W = molecular target: T2, DrOTOP1 G130W (Danio rerio, UniProt Q7ZWK8, G130W); assay: Whole-cell patch-clamp, inhibition of acid-evoked currents, DrOTOP1 G130W (outer site); type: cell-based, zebrafish (Danio rerio); conditions: DrOTOP1 G130W
T2 construct: A previously generated codon-optimized full-length DrOTOP1[8]; (UniProt: Q7ZWK8) construct; expressed in transfected cells; host or cells: HEK-293 (CRL-1573, ATCC)
T2 sequence (Q7ZWK8 1-586 G130W): T1 sequence (Q7ZWK8 1-586) with G130W
From the text: To functionally test the significance of the two binding sites identified by cryo-EM, we generated point mutations of DrOTOP1 using the binding poses and conformational changes observed in DrOTOP1_C2.2 to guide our mutations. As per the binding pose that best fits our cryo-EM density, C2.2 forms the following interactions in the outer site: hydrophobic packing against many non-polar residues W126, G130, M133, L134, F271, F570, and M573, and π-stacking with W532 (Fig. 5A). In addition, C2.2 could potentially form H-bonds with E267, if the sidechain is protonated or a water bridge is present, and with H574 if it moves closer (Fig. 5A). Likewise, C2.36 presents a heterocyclic nitrogen that can potentially form a H-bond with E267, similarly, provided a protonation or water bridge is present (Fig. 5B). In addition, C2.36 forms a T-shaped π-stacking interaction with H574, whose sidechain has rotated 90 degrees (compared to DrOTOP1_apo), presumably to accommodate the interaction (Fig. 5B). Considering other inhibitors discovered from the second round of screening, many contain functional groups like the carbonyl groups of Group 1 molecules and the heterocyclic nitrogen atoms of Group 2 molecules (Supplementary Fig. 3E), that can potentially form similar H-bonds with E267 as C2.2 and C2.36, assuming the binding modes are similar. In the central site, C2.2 binds with the following interactions: hydrophobic packing with residues V201, F271, A274, V278, and A388, π-stacking with F277, and H-bonding with E384 (Fig. 5C).
Each non-aromatic residue was mutated to tryptophan, which was expected to cause steric occlusion. […] This seemed appropriate given the small number of H-bonds in these pockets, the ambiguity of how the inhibitors fit the density, and the prevalence of hydrophobic packing interactions (Fig. 5A–C).
as §1, §2
Standard Tyrode’s solution consisted of 145 mM NaCl, 5 mM KCl, MgCl2, 2 mM CaCl2, 20 mM D-Glucose, and 10 mM HEPES (for pH 7.4). All other extracellular patch-clamp solutions contained 160 mM NMDG-Cl, 2 mM CaCl2, and the following buffers: 10 mM HEPES (for pH 7.4), 10 mM MES (for pH 6.5-5.5), 10 mM CHES for pH 10, and 10 mM HomoPIPES for (pH 5.0). pH adjusted with HCl. […]

[1] = FDA 1-3 = FDA-approved drugs, read-out: Inhibition of pH 5.5-induced currents, screen 2

## Oc1ccc(-c2nnc3n2Cc2ccccc2OC3)cc1 [C2.36]
DrOTOP1; WT DrOTOP1, pH 5.5 stimulus
  Kinetics and reversibility of inhibition: uniquely slow off-rate; also recorded: slowly inhibited; also recorded: poorly reversible
DrOTOP1 G130W
  Wash-off compared to WT: faster wash-off
DrOTOP1 G130W; pH 5.5, 100 µM C2.36 according to legend of Fig. 5M, N, single cells
  Inhibition (Fig. 5N): significantly less inhibition

## Cc1nc(=NCCCc2ncc[nH]2)c2c([nH]1)COc1ccccc1C2 [C2.51]
DrOTOP1; FDA 1-3 = FDA-approved drugs, listed as 51, 200 µM
  Inhibition of pH 5.5-induced currents, screen 2: 16.6082% and 21.5548%
DrOTOP1; [1]
  inhibition at 200 µM: 26.3%

## Cc1csc(NC(=O)c2nc(C3CC3)n[nH]2)n1 [C38]
DrOTOP1
  Inhibition of pH 5.5-induced currents, screen 1: 0.5534% and 0.7746%
DrOTOP1; read-out: Inhibition of pH 5.5-induced currents, screen 1
  inhibition at 200 µM: 0.922%

## Cc1noc(-c2csc(Cc3ccccc3)n2)n1 [C39]
DrOTOP1
  Inhibition of pH 5.5-induced currents, screen 1: 1.199% and 1.966% and 0.3901%

## COCc1nc(-c2nc3c([nH]2)CCCNC3=O)no1 [C42]
DrOTOP1
  Inhibition of pH 5.5-induced currents, screen 1: 1.242% and 3.465% and 1.504%

## Cc1n[nH]c(CNC(=O)c2cnc3ccccc3n2)n1 [C44]
DrOTOP1
  Inhibition of pH 5.5-induced currents, screen 1: 3.035% and 1.397% and 1.665%

## CC(=O)O[C@H]1Cc2ccccc2N(C(N)=O)c2ccccc21 [eslicarbazepine acetate, reference compound]
DrOTOP1; FDA 1-3 = FDA-approved drugs, listed as FDA 2, 200 µM
  Inhibition of pH 5.5-induced currents, screen 2: 4.01% and 3.687%
DrOTOP1; [1]
  inhibition at 200 µM: 3.48%

From PMC12549899 (Nature Communications, 2025)
